{"source": "patent US10294202B2", "about": "“Pyrrolidinones as herbicides” (FMC Corporation, priority 2013, dated 2019)", "key": {"crabgrass, large": {"test_system": "crabgrass, large", "test": "Test C pre-/postemergence herbicide test", "type": "in vivo, Digitaria sanguinalis", "in_short": "(§1)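 Two application timings ran in parallel with identically formulated test chemicals (non-phytotoxic solvent, surfactant included): spray on seeded loam–sand soil, and spray on emerged plants 2 to 18 cm high. Evaluation at 13 to 15 days compared each species with controls, rated from 0 up to 100.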"}, "barnyardgrass [1]": {"test_system": "barnyardgrass", "test": "Test C pre-/postemergence herbicide test", "type": "in vivo, Echinochloa crus-galli", "in_short": "as §1"}, "barnyardgrass [2]": {"test_system": "barnyardgrass", "test": "Test A pre-/postemergence herbicide test", "type": "in vivo, Echinochloa crus-galli", "conditions": "for Plant response rating, Barnyardgrass: 0 to 100 scale", "in_short": "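Directed soil spray to seeded pots (preemergence) or spray onto one- to two-leaf seedlings 2–10 cm tall (postemergence); loam/sand substrate throughout. Evaluated visually after about 10 days against untreated plants, 0 = no effect, 100 = complete control.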"}, "pigweed": {"test_system": "pigweed", "test": "Test C pre-/postemergence herbicide test", "type": "in vivo, Amaranthus retroflexus", "in_short": "as §1"}, "blackgrass": {"test_system": "blackgrass", "test": "Test C pre-/postemergence herbicide test", "type": "in vivo, Alopecurus myosuroides", "in_short": "as §1"}, "foxtail, giant": {"test_system": "foxtail, giant", "test": "Test C pre-/postemergence herbicide test", "type": "in vivo, Setaria faberii", "in_short": "as §1"}, "oilseed rape": {"test_system": "oilseed rape", "test": "Test C pre-/postemergence herbicide test", "type": "in vivo, Brassica napus", "in_short": "as §1"}, "wheat (winter wheat)": {"test_system": "wheat (winter wheat)", "test": "Test C pre-/postemergence herbicide test", "type": "in vivo, Triticum aestivum", "in_short": "as §1"}, "galium": {"test_system": "galium", "test": "Test C pre-/postemergence herbicide test", "type": "in vivo, Galium aparine", "in_short": "as §1"}, "oat, wild": {"test_system": "oat, wild", "test": "Test C pre-/postemergence herbicide test", "type": "in vivo, Avena fatua", "conditions": "Postemergence", "in_short": "as §1"}, "velvetleaf": {"test_system": "velvetleaf", "test": "Test C pre-/postemergence herbicide test", "type": "in vivo, Abutilon theophrasti", "in_short": "as §1"}, "soybean": {"test_system": "soybean", "test": "Test C pre-/postemergence herbicide test", "type": "in vivo, Glycine max", "in_short": "as §1"}, "[3]": {"conditions": "Postemergence, 31 g ai/ha, scale 0 to 100 (0 no effect, 100 complete control)"}, "[4]": {"conditions": "Postemergence, 62 g ai/ha, scale 0 (no effect) to 100 (complete control)"}, "[5]": {"conditions": "Postemergence, 125 g ai/ha, scale 0 to 100 (0 no effect, 100 complete control)"}, "[6]": {"conditions": "Postemergence, 250 g ai/ha, scale 0 to 100 (0 no effect, 100 complete control)"}, "[7]": {"conditions": "Preemergence, 31 g ai/ha, scale 0 to 100, 0 is no effect and 100 is complete control"}, "[8]": {"conditions": "Preemergence, 62 g ai/ha, scale 0 to 100 (0 no effect, 100 complete control)"}, "[9]": {"conditions": "Preemergence, 125 g ai/ha, scale 0 to 100 (0 no effect, 100 complete control)"}, "[10]": {"conditions": "Preemergence, 62 g ai/ha, scale 0 to 100"}}, "data": [{"smiles": "O=C1NC[C@H](c2cccc(C(F)(F)F)c2)[C@H]1C(=O)Nc1cccc(F)c1F", "note": "[Compound 206]", "values": [{"measurement": "Plant response rating, Crabgrass, Large", "setting": "crabgrass, large; [3]", "value": 45}, {"measurement": "Plant response rating, Crabgrass, Large", "setting": "crabgrass, large; [4]", "value": 50}, {"measurement": "Plant response rating, Crabgrass, Large", "setting": "crabgrass, large; [5]", "value": 70}, {"measurement": "Plant response rating, Crabgrass, Large", "setting": "crabgrass, large; [6]", "value": 80}, {"measurement": "Crabgrass, Large plant response rating", "setting": "crabgrass, large; [7]", "value": 90}, {"measurement": "Crabgrass, Large plant response rating", "setting": "crabgrass, large; [8]", "value": 90}, {"measurement": "Plant response rating, Crabgrass, Large", "setting": "crabgrass, large; [9]", "value": 95}, {"measurement": "Plant response rating (scale of 0 to 100), Crabgrass, Large", "setting": "crabgrass, large; Preemergence, 250 g ai/ha", "value": 95}, {"measurement": "Plant response rating, Barnyardgrass", "setting": "barnyardgrass [1]; [3]", "value": 25}, {"measurement": "Plant response rating, Barnyardgrass", "setting": "barnyardgrass [1]; [4]", "value": 40}, {"measurement": "Plant response rating, Barnyardgrass", "setting": "barnyardgrass [1]; [5]", "value": 80}, {"measurement": "Plant response rating, Barnyardgrass", "setting": "barnyardgrass [1]; [6]", "value": 80}, {"measurement": "Barnyardgrass plant response rating", "setting": "barnyardgrass [1]; [7]", "value": 90}, {"measurement": "Plant response rating, Barnyardgrass", "setting": "barnyardgrass [1]; [10]", "value": 90}, {"measurement": "Plant response rating, Barnyardgrass", "setting": "barnyardgrass [1]; [9]", "value": 95}, {"measurement": "Plant response rating (scale of 0 to 100; 0 is no effect, 100 is complete control), Barnyardgrass", "setting": "barnyardgrass [1]; Preemergence, 250 g ai/ha", "value": 95}, {"measurement": "Plant response rating, Barnyardgrass", "setting": "barnyardgrass [2]; 125 g ai/ha, visual rating, 0 no effect, 100 complete control, approximately 10 days, preemergence", "value": 90}, {"measurement": "Plant response rating, Barnyardgrass", "setting": "barnyardgrass [2]; Postemergence, 125 g ai/ha, 0 is no effect, 100 is complete control", "value": 90}, {"measurement": "Barnyardgrass plant response rating (0 to 100 scale, 0 is no effect, 100 is complete control)", "setting": "barnyardgrass [2]; Postemergence, 500 g ai/ha", "value": 90}, {"measurement": "Plant response rating, Barnyardgrass", "setting": "barnyardgrass [2]; preemergence, 500 g ai/ha, 0 is no effect and 100 is complete control", "value": 90}, {"measurement": "Plant response rating, Pigweed", "setting": "pigweed; [3]", "value": 30}, {"measurement": "Plant response rating, Pigweed", "setting": "pigweed; [4]", "value": 40}, {"measurement": "Plant response rating, Pigweed", "setting": "pigweed; [5]", "value": 50}, {"measurement": "Plant response rating, Pigweed", "setting": "pigweed; [6]", "value": 30}, {"measurement": "Pigweed plant response rating", "setting": "pigweed; [7]", "value": 70}, {"measurement": "Pigweed plant response rating", "setting": "pigweed; [8]", "value": 100}, {"measurement": "Plant response rating, Pigweed", "setting": "pigweed; [9]", "value": 100}, {"measurement": "Plant response rating (scale of 0 to 100), Pigweed", "setting": "pigweed; Preemergence, 250 g ai/ha", "value": 85}, {"measurement": "Plant response rating, Blackgrass", "setting": "blackgrass; [3]", "value": 0}, {"measurement": "Plant response rating, Blackgrass", "setting": "blackgrass; [4]", "value": 0}, {"measurement": "Plant response rating, Blackgrass", "setting": "blackgrass; [5]", "value": 40}, {"measurement": "Plant response rating, Blackgrass", "setting": "blackgrass; [6]", "value": 60}, {"measurement": "Blackgrass plant response rating", "setting": "blackgrass; [7]", "value": 85}, {"measurement": "Plant response rating, Blackgrass", "setting": "blackgrass; [10]", "value": 90}, {"measurement": "Plant response rating, Blackgrass", "setting": "blackgrass; [9]", "value": 90}, {"measurement": "Plant response rating (scale of 0 to 100), Blackgrass", "setting": "blackgrass; Preemergence, 250 g ai/ha", "value": 90}, {"measurement": "Plant response rating, Foxtail, Giant", "setting": "foxtail, giant; [3]", "value": 0}, {"measurement": "Plant response rating, Foxtail, Giant", "setting": "foxtail, giant; [4]", "value": 50}, {"measurement": "Plant response rating, Foxtail, Giant", "setting": "foxtail, giant; [5]", "value": 50}, {"measurement": "Plant response rating, Foxtail, Giant", "setting": "foxtail, giant; [6]", "value": 85}, {"measurement": "Foxtail, Giant plant response rating", "setting": "foxtail, giant; [7]", "value": 90}, {"measurement": "Foxtail, Giant plant response rating", "setting": "foxtail, giant; [8]", "value": 90}, {"measurement": "Plant response rating, Foxtail, Giant", "setting": "foxtail, giant; [9]", "value": 95}, {"measurement": "Plant response rating (scale of 0 to 100), Foxtail, Giant", "setting": "foxtail, giant; Preemergence, 250 g ai/ha", "value": 95}, {"measurement": "Plant response rating, Oilseed Rape", "setting": "oilseed rape; [3]", "value": 0}, {"measurement": "Plant response rating, Oilseed Rape", "setting": "oilseed rape; [4]", "value": 30}, {"measurement": "Plant response rating, Oilseed Rape", "setting": "oilseed rape; [5]", "value": 50}, {"measurement": "Plant response rating, Oilseed Rape", "setting": "oilseed rape; [6]", "value": 55}, {"measurement": "Oilseed Rape plant response rating", "setting": "oilseed rape; [7]", "value": 5}, {"measurement": "Oilseed Rape plant response rating", "setting": "oilseed rape; [8]", "value": 70}, {"measurement": "Plant response rating, Oilseed Rape", "setting": "oilseed rape; [9]", "value": 75}, {"measurement": "Plant response rating (scale of 0 to 100), Oilseed Rape", "setting": "oilseed rape; Preemergence, 250 g ai/ha", "value": 90}, {"measurement": "Plant response rating, Wheat", "setting": "wheat (winter wheat); [3]", "value": 0}, {"measurement": "Plant response rating, Wheat", "setting": "wheat (winter wheat); [4]", "value": 0}, {"measurement": "Plant response rating, Wheat", "setting": "wheat (winter wheat); [5]", "value": 30}, {"measurement": "Plant response rating, Wheat", "setting": "wheat (winter wheat); [6]", "value": 45}, {"measurement": "Wheat plant response rating", "setting": "wheat (winter wheat); [7]", "value": 35}, {"measurement": "Wheat plant response rating", "setting": "wheat (winter wheat); [8]", "value": 40}, {"measurement": "Plant response rating, Wheat", "setting": "wheat (winter wheat); [9]", "value": 70}, {"measurement": "Plant response rating (scale of 0 to 100), Wheat", "setting": "wheat (winter wheat); Preemergence, 250 g ai/ha", "value": 70}, {"measurement": "Plant response rating, Galium", "setting": "galium; [3]", "value": 60}, {"measurement": "Plant response rating, Galium", "setting": "galium; [4]", "value": 75}, {"measurement": "Plant response rating, Galium", "setting": "galium; [5]", "value": 75}, {"measurement": "Plant response rating, Galium", "setting": "galium; [6]", "value": 75}, {"measurement": "Galium plant response rating", "setting": "galium; [7]", "value": 20}, {"measurement": "Galium plant response rating", "setting": "galium; [8]", "value": 70}, {"measurement": "Plant response rating, Galium", "setting": "galium; [9]", "value": 70}, {"measurement": "Plant response rating (scale of 0 to 100), Galium", "setting": "galium; Preemergence, 250 g ai/ha", "value": 85}, {"measurement": "Plant response rating, Oat, Wild", "setting": "oat, wild; 31 g ai/ha, scale 0 to 100 (0 no effect, 100 complete control)", "value": 0}, {"measurement": "Plant response rating, Oat, Wild", "setting": "oat, wild; 62 g ai/ha, scale 0 (no effect) to 100 (complete control)", "value": 5}, {"measurement": "Plant response rating, Oat, Wild", "setting": "oat, wild; 125 g ai/ha, scale 0 to 100 (0 no effect, 100 complete control)", "value": 45}, {"measurement": "Plant response rating, Oat, Wild", "setting": "oat, wild; 250 g ai/ha, scale 0 to 100 (0 no effect, 100 complete control)", "value": 50}, {"measurement": "Plant response rating, Velvetleaf", "setting": "velvetleaf; [3]", "value": 0}, {"measurement": "Plant response rating, Velvetleaf", "setting": "velvetleaf; [4]", "value": 0}, {"measurement": "Plant response rating, Velvetleaf", "setting": "velvetleaf; [5]", "value": 15}, {"measurement": "Plant response rating, Velvetleaf", "setting": "velvetleaf; [6]", "value": 15}, {"measurement": "Velvetleaf plant response rating", "setting": "velvetleaf; [7]", "value": 0}, {"measurement": "Velvetleaf plant response rating", "setting": "velvetleaf; [8]", "value": 50}, {"measurement": "Plant response rating, Velvetleaf", "setting": "velvetleaf; [9]", "value": 40}, {"measurement": "Plant response rating (scale of 0 to 100), Velvetleaf", "setting": "velvetleaf; Preemergence, 250 g ai/ha", "value": 60}, {"measurement": "Plant response rating, Soybean", "setting": "soybean; [3]", "value": 5}, {"measurement": "Plant response rating, Soybean", "setting": "soybean; [4]", "value": 5}, {"measurement": "Plant response rating, Soybean", "setting": "soybean; [5]", "value": 5}, {"measurement": "Plant response rating, Soybean", "setting": "soybean; [6]", "value": 5}, {"measurement": "Soybean plant response rating", "setting": "soybean; [7]", "value": 0}, {"measurement": "Soybean plant response rating", "setting": "soybean; [8]", "value": 0}, {"measurement": "Plant response rating, Soybean", "setting": "soybean; [9]", "value": 0}, {"measurement": "Plant response rating (scale of 0 to 100), Soybean", "setting": "soybean; Preemergence, 250 g ai/ha", "value": 0}]}]}
